According to article PMC9564220, “Dipeptidyl peptidase-4 inhibitory potentials of Glycyrrhiza uralensis and its bioactive compounds licochalcone A and licochalcone B: An in silico and in vitro study” (Frontiers in Molecular Biosciences, 2022):
pIC50: −log10 of the molar value.

Target: T1, Dipeptidyl peptidase-4 (DPP-4) (Homo sapiens, UniProt P27487)
T1 construct: gene DPP4
Test: fluorescence DPP-4 inhibitor screening kit (Sigma Aldrich), kinetic mode
Type: biochemical

T1 sequence (P27487 whole entry): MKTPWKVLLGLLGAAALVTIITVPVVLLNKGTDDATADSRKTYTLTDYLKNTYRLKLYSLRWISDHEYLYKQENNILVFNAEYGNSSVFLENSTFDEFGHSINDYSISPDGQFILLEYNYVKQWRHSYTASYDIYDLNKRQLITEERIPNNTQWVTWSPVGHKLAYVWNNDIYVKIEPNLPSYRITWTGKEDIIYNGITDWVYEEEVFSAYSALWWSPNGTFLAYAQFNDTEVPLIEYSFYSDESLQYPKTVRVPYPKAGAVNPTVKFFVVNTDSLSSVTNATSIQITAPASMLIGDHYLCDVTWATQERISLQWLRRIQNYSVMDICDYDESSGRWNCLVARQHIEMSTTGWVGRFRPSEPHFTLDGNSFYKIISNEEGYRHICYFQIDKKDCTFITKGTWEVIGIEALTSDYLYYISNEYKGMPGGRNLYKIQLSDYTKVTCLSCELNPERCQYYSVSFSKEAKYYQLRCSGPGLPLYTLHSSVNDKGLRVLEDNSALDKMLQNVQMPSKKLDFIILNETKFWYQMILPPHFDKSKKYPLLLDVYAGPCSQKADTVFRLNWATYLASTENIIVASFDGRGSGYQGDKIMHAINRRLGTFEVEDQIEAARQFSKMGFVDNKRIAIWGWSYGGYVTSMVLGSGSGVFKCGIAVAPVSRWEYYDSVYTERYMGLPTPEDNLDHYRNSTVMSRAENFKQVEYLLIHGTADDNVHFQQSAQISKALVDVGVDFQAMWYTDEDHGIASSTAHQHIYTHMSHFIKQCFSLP

| Compound | pIC50 |
| --- | --- |
| C=CC(C)(C)c1cc(/C=C/C(=O)c2ccc(O)cc2)c(OC)cc1O [LicA, licochalcone A] | ~3.46 |
| COc1c(/C=C/C(=O)c2ccc(O)cc2)ccc(O)c1O [LicB, licochalcone B] | ~3.10 |
